Experiment [1] deals with acetylcholinesterase (Homo sapiens, UniProt P22303). The experiment is described as follows: Inhibition of acetylcholinesterase activity by honokiol and 4-O-methylhonokiol (modified Ellman's method). The format is biochemical. Particulars: for IC50: 5 minutes of reaction at 25° C., pH 8.0; for inhibition at 0.01 µM: concentration 10 nM; for inhibition at 0.1 µM: concentration 100 nM. The protocol: Acetylcholinesterase activity was analyzed by the modified Ellman's method [Ellman G. L., et al., Biochem. Pharmacol. 7, 88-95, 1961]. After adding 50 mM phosphate buffer (30 μL, pH 8.0) to a 96-well plate, different concentrations of 4-O-methylhonokiol or honokiol was added, 10 μL per well, and acetylcholinesterase was added, 10 μL per well. Then, 50 mM phosphate buffer (50 μL, pH 8.0) containing 0.5 mM acetylthiocholine iodide and 1 mM 5,5′-dithiobis(2-nitrobenzoic acid) was added as a substrate for the enzyme. After 5 minutes of reaction at 25° C., absorbance was measured at 412 nm. The inhibition of acetylcholinesterase activity was calculated by the following equation. Measurement was made 3 times. Inhibition of acetylcholinesterase activity (%)=[…]
acetylcholinesterase, sequence (P22303 32-614, species assumed): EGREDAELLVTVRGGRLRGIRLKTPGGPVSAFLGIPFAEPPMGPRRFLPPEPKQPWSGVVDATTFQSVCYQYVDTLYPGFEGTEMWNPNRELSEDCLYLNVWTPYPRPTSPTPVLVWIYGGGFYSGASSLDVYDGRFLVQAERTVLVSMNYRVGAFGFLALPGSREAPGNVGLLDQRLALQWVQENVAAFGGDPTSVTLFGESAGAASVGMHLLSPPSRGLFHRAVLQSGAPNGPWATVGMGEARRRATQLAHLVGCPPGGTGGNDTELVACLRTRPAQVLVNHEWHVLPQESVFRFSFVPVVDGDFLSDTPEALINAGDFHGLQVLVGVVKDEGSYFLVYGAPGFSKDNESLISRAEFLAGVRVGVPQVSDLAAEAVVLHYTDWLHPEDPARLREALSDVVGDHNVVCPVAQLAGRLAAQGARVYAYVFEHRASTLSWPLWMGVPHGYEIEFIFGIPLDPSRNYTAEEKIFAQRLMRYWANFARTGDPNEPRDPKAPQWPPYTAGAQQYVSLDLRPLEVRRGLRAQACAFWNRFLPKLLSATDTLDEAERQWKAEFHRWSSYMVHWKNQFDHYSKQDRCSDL
ODb: absorbance of untreated reaction solution at 412 nm;
ODs: absorbance of treated reaction solution at 412 nm; and
ODc: absorbance of control at 412 nm.

Another experiment relates to Amyloid-β 1-42. Put plainly: Inhibition of amyloid-β 1-42 production in mouse brain cortex and hippocampus (amyloid beta 1-42 assay kit). Conditions: for Improvement: production amount. The format is in vivo. The protocol:
After the behavioral pharmacological experiments, the brain cortex and hippocampus were separated from the brain of the mouse, homogenized with RO-PREP protein extraction solution, and centrifuged at 4° C., at 15,000 rpm, for 2 hours. The protein quantity of the supernatant was analyzed with a Bio-Rad protein analysis kit (Bio-Rad). Amyloid-β 1-42 were quantitated using an amyloid beta 1-42 assay kit (Immuno-Biological, Japan).
The protein extract (100 μL) obtained from the brain cortex or hippocampus was put in a coated 96-well plate and incubated at 4° C. overnight. After washing with washing buffer and adding labeled antibody solution, the mixture was incubated at 4° C. for 1 hour in the dark. After washing again and adding chromogen, the mixture was incubated at room temperature for 30 minutes in the dark. Then, after adding stop solution, absorbance was measured at 450 nm. Measurement was made 3 times.

Experiment [2] concerns scopolamine-induced impairment of learning ability of mice. The experiment is described as follows: Water maze test for evaluating spatial learning ability. Conditions: for Improvement: escape distance. In kind it is in vivo, male ICR mice. The procedure:
In order to test the effect of 4-O-methylhonokiol on the scopolamine-induced impairment of learning ability of mice, experiment was performed as follows based on the water maze test animal model described in the literature [Korea Health Research Association, Guidelines for the Testing of Functional Health Foods, 663-701, 2004; Widy-Tyszkiewicz et al., Biol. Pharm. Bull., 2002]. 5-6 weeks old male ICR mice (20-28 g; Dae Han Biolink, Korea) were raised under controlled lighting (12-hour light-dark cycle) and temperature (22±2° C.) conditions. They were grouped (n=10) and given free access to food and water, in a cage. The mice were accustomed for a week before performing the test.
A round pool 180 cm in diameter and 50 cm in height was filled with water (22±3° C.) to 30 cm in depth. A transparent acryl resin platform (diameter 12 cm) was placed 1.5 cm below the surface of the water. The mice were trained for 6 days, 180 seconds a day (acquisition test). On day 7, retention test was carried out. The mice were forced to swim for 60 seconds by removing the platform. All the behaviors of the mice were recorded using a video camera. Time and distance were measured until the mice climbed onto the platform.
4-O-methylhonokiol (0.5, 1 and 1.5 mg/kg) was dissolved in drinking water and orally administered to the mice, for a week. The comparison group was treated with scopolamine only, and the control group was not treated with any substance.

The subject of experiment [3] is scopolamine-induced impairment of memory of mice. The experiment is described as follows: Passive avoidance test for evaluating explicit memory. In kind it is in vivo. Conditions: for Improvement: step-through latency. The procedure:
In order to test the effect of 4-O-methylhonokiol on the scopolamine-induced impairment of memory of mice, experiment was performed as follows based on the passive avoidance test animal model described in the literature [Korea Health Research Association, Guidelines for the Testing of Functional Health Foods, 663-701, 2004; Rho et al., Biol. Pharm. Bull., 2005].
A passive avoidance instrument consisting of two chambers separated by a guillotine door was used as the experimental apparatus. One chamber was an illuminated chamber made of transparent acryl boards (30×30×30 cm) and the other was a dark chamber made of black acryl boards (same dimensions). The floor of the dark chamber was equipped with a grid made of aluminum pieces separated by a regular spacing. The grid was connected to an apparatus for delivering electric shocks to the feet of the test animal. A mouse was put into the illuminated chamber and the guillotine door was opened so that the mouse could enter the dark chamber. The acquisition trials were repeated 3 times. On the third run, immediately after the mouse entered the dark chamber, an electric shock was delivered through the aluminum grid (0.1 mA, 5 seconds). Memory test was performed 24 hours after the acquisition trials. The mouse was put into the illuminated chamber, the guillotine door was opened, and the time taken for the mouse to enter the dark chamber was measured (step-through latency). A longer time means better learning ability and memory. 10 mice were tested for each group.

Experiment [4] deals with T1, Acetylcholinesterase (Mus musculus, UniProt P21836).
T1 construct: the brain cortex and hippocampus were separated from the brain of the mouse, homogenized with RO-PREP protein extraction solution; from tissue; host or cells: mouse brain cortex and hippocampus
T1 sequence (P21836 32-614): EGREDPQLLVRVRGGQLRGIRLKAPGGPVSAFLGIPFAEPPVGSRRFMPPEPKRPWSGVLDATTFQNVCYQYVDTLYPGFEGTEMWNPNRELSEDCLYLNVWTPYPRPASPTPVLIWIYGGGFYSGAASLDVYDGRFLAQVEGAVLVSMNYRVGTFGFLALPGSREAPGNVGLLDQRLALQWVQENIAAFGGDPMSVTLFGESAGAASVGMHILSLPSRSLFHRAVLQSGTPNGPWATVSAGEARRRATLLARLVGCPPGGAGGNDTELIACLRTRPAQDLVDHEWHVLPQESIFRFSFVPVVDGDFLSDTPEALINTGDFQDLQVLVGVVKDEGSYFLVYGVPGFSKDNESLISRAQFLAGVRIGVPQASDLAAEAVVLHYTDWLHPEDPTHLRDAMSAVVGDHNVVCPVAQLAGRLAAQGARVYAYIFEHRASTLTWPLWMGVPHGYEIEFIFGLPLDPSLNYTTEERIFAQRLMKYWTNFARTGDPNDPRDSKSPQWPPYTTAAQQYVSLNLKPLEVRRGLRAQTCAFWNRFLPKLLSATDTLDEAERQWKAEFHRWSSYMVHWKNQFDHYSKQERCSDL
Put plainly: Acetylcholinesterase activity in mouse brain cortex and hippocampus after the behavioral experiments (modified Ellman's method). The format is in vivo. Further details: Enzyme activity: unit not given beside the values. Conditions: for Improvement: enzyme activity. The protocol:
After the behavioral pharmacological experiments, the brain cortex and hippocampus were separated from the brain of the mouse, homogenized with RO-PREP protein extraction solution (iNtRON Biotechnology), and centrifuged at 4° C., at 15,000 rpm, for 2 hours. The protein quantity of the supernatant was analyzed with a Bio-Rad protein analysis kit (Bio-Rad). Acetylcholinesterase activity was analyzed by the modified Ellman's method.
Cell lysate was put in a 96-well plate, 10 μL per well. After adding reaction buffer [190 μL, 0.01% DTNB, 0.02% acetylthiocholine and 0.1 mM isoOMPA in 50 mM Tris-HCl (pH 8.0, 0.1 M NaCl, 20 mM MgCl2)], measurement was made at 37° C., at 405 nm, for 5 minutes. After 10 minutes of reaction, measurement was made again at the same wavelength. After adding different concentrations of acetylcholinesterase and treating with standard buffer [0.01% DTNB and 0.02% 0.1 mM isoOMPA in 50 mM Tris-HCl (pH 8.0, 0.1 M NaCl, 20 mM MgCl2)], measurement was made at 37° C., at 405 nm, for 5 minutes. Activity was calculated from the difference of absorbance at the first and second measurements.

Where [5] appears, read: scopolamine 1 mg/kg + 4-O-methylhonokiol 0.5 mg/kg.
The mark [6] stands for this setting: scopolamine 1 mg/kg + 4-O-methylhonokiol 1 mg/kg.
Setting [7] is: scopolamine 1 mg/kg + 4-O-methylhonokiol 1.5 mg/kg.
Setting [8] is: brain cortex, scopolamine 1 mg/kg + 4-O-methylhonokiol 0.5 mg/kg.
Setting [9] is: brain cortex, scopolamine 1 mg/kg + 4-O-methylhonokiol 1 mg/kg.
[10] abbreviates: brain cortex, scopolamine 1 mg/kg + 4-O-methylhonokiol 1.5 mg/kg.
Setting [11] is: hippocampus, scopolamine 1 mg/kg + 4-O-methylhonokiol 0.5 mg/kg.
Where [12] appears, read: hippocampus, scopolamine 1 mg/kg + 4-O-methylhonokiol 1 mg/kg.
Where [13] appears, read: hippocampus, scopolamine 1 mg/kg + 4-O-methylhonokiol 1.5 mg/kg.

What is called IC50 is the concentration that gives 50% inhibition. By inhibition is commonly meant the drop in the measured response relative to a control, in per cent. On acetylcholinesterase [1], `C=CCc1ccc(O)c(-c2ccc(O)c(CC=C)c2)c1` [Honokiol] displayed an IC50 of 250 nM, an inhibition at 0.01 µM of 17% and an inhibition at 0.1 µM of 43%. Also, at acetylcholinesterase [1] (concentration 1000 nM), the inhibition at 1 µM turned out to be 74%.
On to β-amyloid [reference compound], for which the Production amount with Amyloid-β 1-42 (amyloid-β 1-42, brain cortex, comparison group, β-amyloid 1 mg/kg only (control group 23.5)) is listed as 28.1; in the experiment with Amyloid-β 1-42 (amyloid-β 1-42, hippocampus, comparison group, β-amyloid 1 mg/kg only (control group 16.2)) it was 25.1.
As to `C=CCc1ccc(O)c(-c2ccc(OC)c(CC=C)c2)c1` [4-O-methylhonokiol], the Improvement in experiment [2] (setting [5]) was 48.8%; in experiment [2] (setting [6]), 88.6%; in experiment [2] (setting [7]), 91.8%; in experiment [3] (setting [5]), 37.1%; in experiment [3] (setting [6]), 70%; in experiment [3] (setting [7]), 95%. Also, the Improvement at Acetylcholinesterase [4] (setting [8]) worked out at 42.8%; at Acetylcholinesterase [4] (setting [9]) it was 70.3%; at Acetylcholinesterase [4] (setting [10]) it was 92.8%; at Acetylcholinesterase [4] (setting [11]), 72.7%; on Acetylcholinesterase [4] (setting [12]) it was 93.2%; at Acetylcholinesterase [4] (setting [13]), 97.7%. The Improvement in the experiment with Amyloid-β 1-42 (brain cortex, β-amyloid 1 mg/kg + 4-O-methylhonokiol 0.5 mg/kg) was 28.3%; in the experiment on Amyloid-β 1-42 (brain cortex, β-amyloid 1 mg/kg + 4-O-methylhonokiol 1 mg/kg) it was 82.6%; in the experiment on Amyloid-β 1-42 (brain cortex, β-amyloid 1 mg/kg + 4-O-methylhonokiol 1.5 mg/kg), 100%; in the experiment with Amyloid-β 1-42 (hippocampus, β-amyloid 1 mg/kg + 4-O-methylhonokiol 0.5 mg/kg) it was 33.3%; in the experiment on Amyloid-β 1-42 (hippocampus, β-amyloid 1 mg/kg + 4-O-methylhonokiol 1 mg/kg), 77.8%; in the experiment on Amyloid-β 1-42 (hippocampus, β-amyloid 1 mg/kg + 4-O-methylhonokiol 1.5 mg/kg), 95.6%. In addition, the Escape distance in experiment [2] (scopolamine 1 mg/kg + 4-O-methylhonokiol 0.5 mg/kg oral in drinking water for a week, mice) was found to be 566 cm; in experiment [2] (scopolamine 1 mg/kg + 4-O-methylhonokiol 1 mg/kg oral in drinking water for a week, mice), 305 cm; in experiment [2] (scopolamine 1 mg/kg + 4-O-methylhonokiol 1.5 mg/kg oral in drinking water for a week, mice) it was 284 cm. In addition, the Step-through latency in experiment [3] (scopolamine 1 mg/kg + 4-O-methylhonokiol 0.5 mg/kg, 24 hours after acquisition trials) came to 21.9 s; in experiment [3] (scopolamine 1 mg/kg + 4-O-methylhonokiol 1 mg/kg, 24 hours after acquisition trials), 28.3 s; in experiment [3] (scopolamine 1 mg/kg + 4-O-methylhonokiol 1.5 mg/kg, 24 hours after acquisition trials) it was 33.5 s. Besides, the Enzyme activity on Acetylcholinesterase [4] (setting [8]) came to 30.2; on Acetylcholinesterase [4] (setting [9]), 24.1; on Acetylcholinesterase [4] (setting [10]) it was 19.1; at Acetylcholinesterase [4] (setting [11]) it was 14.1; at Acetylcholinesterase [4] (setting [12]), 13.2; on Acetylcholinesterase [4] (setting [13]), 13. This compound also returned an IC50 on acetylcholinesterase [1] of 1.2 nM. This compound also showed an inhibition at 0.001 µM against acetylcholinesterase [1] (concentration 1 nM) of 47%. The compound also had an inhibition at 0.01 µM at acetylcholinesterase [1] of 68%. In addition, the inhibition at 0.1 µM against acetylcholinesterase [1] turned out to be 78%. On acetylcholinesterase [1] (ratio of IC50 values), the “times better inhibition ability of acetylcholinesterase activity than honokiol” value is on record as “about 200 times”. Moreover, the Production amount with Amyloid-β 1-42 (amyloid-β 1-42, brain cortex, β-amyloid 1 mg/kg + 4-O-methylhonokiol 0.5 mg/kg) worked out at 26.8; in the experiment with Amyloid-β 1-42 (amyloid-β 1-42, brain cortex, β-amyloid 1 mg/kg + 4-O-methylhonokiol 1 mg/kg), 24.3; in the experiment on Amyloid-β 1-42 (amyloid-β 1-42, brain cortex, β-amyloid 1 mg/kg + 4-O-methylhonokiol 1.5 mg/kg) it was 23.1; in the experiment with Amyloid-β 1-42 (amyloid-β 1-42, hippocampus, β-amyloid 1 mg/kg + 4-O-methylhonokiol 0.5 mg/kg), 22.7; in the experiment on Amyloid-β 1-42 (amyloid-β 1-42, hippocampus, β-amyloid 1 mg/kg + 4-O-methylhonokiol 1 mg/kg), 18.2; in the experiment on Amyloid-β 1-42 (amyloid-β 1-42, hippocampus, β-amyloid 1 mg/kg + 4-O-methylhonokiol 1.5 mg/kg), 16.5.
Compound `CN1[C@@H]2C[C@@H](OC(=O)[C@H](CO)c3ccccc3)C[C@H]1[C@@H]1O[C@@H]12` [scopolamine, Scopolamine, reference compound] yielded an Escape distance in experiment [2] (comparison group, scopolamine 1 mg/kg only (control group 232)) of 884 cm. In addition, in experiment [3] (comparison group, scopolamine 1 mg/kg only (control group 34.3)), the Step-through latency worked out at 14.6 s.

These data come from patent US8604087B2, “Composition for treating or preventing amyloid-related diseases comprising 4-O-methylhonokiol” (priority 2008, dated 2013).
